Assay results taken from patent US20240383845A1, “NAPHTHALENEDITHIOL AND DERIVATIVE THEREOF, AND PRODUCTION PROCESS AND USE FOR THE SAME” (SUGAI CHEMICAL INDUSTRY CO., LTD., priority 2021, published 2024).

Columns and labels:
[1] = Refractive index (abbe refractometer); type: physicochemical; conditions: 25° C., 589 nm, value at 100% by mass by extrapolation
Method: The refractive index of each sample was measured using an abbe refractometer (“NAR-lT” manufactured by ATAGO CO., LTD.) at a temperature of 25° C. and a wavelength of 589 nm. Depending on the species of each sample, the refractive index was measured as follows.
For the after-mentioned 16NDSH, 15NDSH, 26NDSH and 27NDSH; 15DGNDSH; 15DHENDSH; 16DMNDSH and 15DMNDSH; and 16DCNDSH and 15DCNDSH, a sample was dissolved in 1,3-dimethyl-2-imidazolidinone (DMI) to prepare multiple solutions with different concentrations, and the refractive index of each solution was measured at a temperature of 25° C. and a wavelength of 589 nm. From the results of the refractive index at each concentration, the refractive index value at 100% by mass of the concentration was determined by extrapolation.
For the after-mentioned 16NDSHMA, 15NDSHMA, 26NDSHMA and 27NDSHMA; 16NDSHA and 15NDSHA; 15DANDSH; and 15DVNDSH, polymerization may occur during the mixing, and thus a sample was dissolved in a methoquinone/DMI solution (a solution containing 4000 ppm of methoquinone relative to the mass of DMI) to prepare multiple solutions with different concentrations. The refractive index of each solution was measured at a temperature of 25° C. and a wavelength of 589 nm. From the results of the refractive index at each concentration, the refractive index value at 100% by mass of the concentration was determined by extrapolation.
For the after-mentioned 16DANDSH; 16DVNDSH; 16DGNDSH; and 16DHENDSH, a sample was liquid for a while after preparation, and thus the refractive index was measured in the state of an undiluted solution. Further, thiol-ene-based resins (thiol-ene-based resins obtained from 16NDSH or 15NDSH and divinylbenzene) were measured in the same manner. […]

[2] = Dissolubility or compatibility (maximum dissolved concentration, HPLC); type: physicochemical; conditions: for Dissolubility, Ethyl acetate / Dissolubility, MMA / Dissolubility, PGMEA / Dissolubility, Styrene / Dissolubility, Toluene / Dissolubility, DMF / Dissolubility, THF / Dissolubility, Methanol: 25° C.; for Dissolubility, MMA: methyl methacrylate; for Dissolubility, PGMEA: propylene glycol monomethyl ether acetate; for Dissolubility, DMF: N,N-dimethylformamide; for Dissolubility, THF: tetrahydrofuran
Method: In more detail, the sample was added to a predetermined amount of a solvent or a polymerizable component until the sample was no longer dissolved, and the sample content of the liquid layer (the solvent layer) of the resulting mixture was analyzed using an HPLC (“SPD-20A” manufactured by SHIMADZU CORPORATION), and thus the concentration (the maximum dissolved concentration) of the sample in the liquid layer (the solvent layer) was determined as a solubility.

[3] = DMI solutions of different concentrations

Refractive index ([1]; methoquinone/DMI solutions) | Dissolubility, Ethyl acetate [2] | Dissolubility, MMA [2] | Dissolubility, PGMEA [2] | Dissolubility, Styrene [2] | Dissolubility, Toluene [2] | melting point | Refractive index [1, 3] | saturation solubility ([2]; in PMMA resin composition) | Dissolubility, DMF [2] | Dissolubility, THF [2] | Dissolubility, Methanol [2] | SMILES
1.653 | 16.4 % by mass | 26.6 % by mass | 13.7 % by mass | 10.6 % by mass | 26.1 % by mass | 78 to 79 °C | – | – | – | – | – | C=CCSc1cccc2c(SCC=C)cccc12 [Example 15DANDSH, 1,5-bis(allylthio)naphthalene]
– | 51.9 % by mass | 60.9 % by mass | 62.3 % by mass | 43.6 % by mass | 56.8 % by mass | 50 to 53 °C | 1.621 | – | – | – | – | c1cc(SCC2CO2)c2cccc(SCC3CO3)c2c1 (centres unmarked) [Example 15DGNDSH, 1,5-bis(glycidylthio)naphthalene]
– | 3.01 % by mass | 34.7 % by mass | 3.60 % by mass | 0.35 % by mass | 0.19 % by mass | 84 to 86 °C | 1.668 | – | – | – | – | OCCSc1cccc2c(SCCO)cccc12 [Example 15DHENDSH, 1,5-bis(2-hydroxyethylthio)naphthalene]
– | 1.25 % by mass | 1.44 % by mass | 1.25 % by mass | 3.13 % by mass | 2.36 % by mass | 149 to 151 °C | 1.690 | about 10 % by mass | – | – | – | CSc1cccc2c(SC)cccc12 [Example 15DMNDSH, 1,5-bis(methylthio)naphthalene]
1.685 | 39.0 % by mass | 43.6 % by mass | 26.3 % by mass | 45.8 % by mass | 59.6 % by mass | 50 to 52 °C | – | – | – | – | – | C=CSc1cccc2c(SC=C)cccc12 [Example 15DVNDSH, 1,5-bis(vinylthio)naphthalene]
1.646 | 1.57 % by mass | 1.93 % by mass | 1.50 % by mass | 4.24 % by mass | 2.61 % by mass | 156 to 158 °C | – | – | – | – | – | C=CC(=O)Sc1cccc2c(SC(=O)C=C)cccc12 [Example 15NDSHA, 1,5-bis(acryloylthio)naphthalene]
– | 0.56 % by mass | 0.14 % by mass | 0.98 % by mass | – | – | 176 to 178 °C | 1.663 | – | 61.0 % by mass | 30.5 % by mass | – | O=C(O)CSc1ccc2c(SCC(=O)O)cccc2c1 [Example 16DCNDSH, 1,6-bis(carboxymethylthio)naphthalene]
1.651 | 1.08 % by mass | 2.42 % by mass | 1.46 % by mass | 5.00 % by mass | 3.73 % by mass | – | – | – | 4.59 % by mass | 9.59 % by mass | 0.13 % by mass | C=C(C)C(=O)Sc1ccc2cc(SC(=O)C(=C)C)ccc2c1 [Example 26NDSHMA, 2,6-bis(methacryloylthio)naphthalene]
1.649 | 3.20 % by mass | 4.36 % by mass | 2.68 % by mass | 7.92 % by mass | 6.84 % by mass | – | – | – | 17.5 % by mass | 13.1 % by mass | 0.20 % by mass | C=C(C)C(=O)Sc1ccc2ccc(SC(=O)C(=C)C)cc2c1 [Example 27NDSHMA, 2,7-bis(methacryloylthio)naphthalene]
